Patent publication US10526662B2, “FALZ for use as a target for therapies to treat cancer” (Sutter Bay Hospitals, priority 2013, dated 2020)

How the values were obtained:
[1] = tested on: 1205-Lu melanoma cells; test: BRAF inhibitor sensitivity of 1205-Lu cells with modulated BPTF expression; assay type: cell-based, human; settings: for reduction in sensitivity to drug on overexpression of BPTF: 1205-Lu overexpressing BPTF; for increase in sensitivity of BPTF shRNA-expressing cells to drug: 1205-Lu, vs control shRNA-expressing cells
Protocol: (§1) Cell viability and colony formation were performed and cell cycle analysis was performed as described using common techniques in the art. Cells were treated with varying concentrations of vemurafenib for 72 hrs or dabrafenib (Chemitek, Indianapolis, Ind.) for 48 hrs or as indicated. DMSO was used as a vehicle.

[2] = tested on: BPTF; test: qRT-PCR of BPTF expression in B16-F10 cells; assay type: cell-based; settings: B16-F10 murine melanoma cells, mRNA level
Protocol: (§2) mRNAs were assayed using the TaqMan Gene Expression Assays in accordance with the manufacturer's instructions (Applied Biosystems). TaqMan probes for BPTF, HPRT1, CCND2, BCL-XL, TWIST1, RAB14, CEBPB, CHI3L1, DLL3, OLIG2, PDGFRA and BCL2 were purchased from Applied Biosystems (Foster City, Calif.).
(§3) Selected shRNAs cloned into the pLKO1-vector were co-transfected into 293T cells along with expression vectors containing the GAG/POL, REV and VSVG genes. Lentiviruses were harvested 48 hrs after transfection. Sub-confluent human melanoma or glioblastoma cells were infected with each harvested lentiviruses in the presence of 8 μg/ml of polybrene, and were selected in 1 μg/ml of puromycin at 48 hrs post-infection in their respective culture medium. B16-F10 cells were transfected with BPTF shRNA1, BPTF shRNA 2 or Neg shRNA vectors and stable transformants were selected with 2 ug/ml of puromycin.

[3] = tested on: B16-F10 murine melanoma cells; test: cDNA microarray gene expression profiling of B16-F10 clones; assay type: cell-based
Source text: Total RNA was extracted from cells using the RNeasy kit (Qiagen, Valencia, Calif.). Ten micrograms of total RNA, along with universal mouse reference RNA (Stratagene, Santa Clara, Calif.), was converted to aminoallyl-modified cDNA by oligo(dT)-primed polymerization using SuperScript II reverse transcriptase (Invitrogen), coupled to N-hydroxysuccinimidyl esters of Cy3 or Cy5 (Amersham Pharmacia, Pittsburgh, Pa.), and then hybridized to a microarray slide as described (Haqq et al., 2005). After linear normalization, log (base 2) transformation, and supervised hierarchical clustering, the resulting cluster data table was imported into the significance analysis of microarrays software package. Delta was chosen to limit the output gene list so that 5% predicted false positives would be included.

[4] = tested on: BPTF; test: qRT-PCR of BPTF expression in 1205-Lu cells; assay type: cell-based; settings: 1205-Lu human melanoma cells (mutant BRAF)
Protocol: as §2, §3

[5] = tested on: 1205-Lu human melanoma cells; test: Cell cycle analysis, 1205-Lu; assay type: cell-based; settings: vs control shRNA vector
Protocol: as §1

[6] = tested on: 1205-Lu human melanoma cells; test: Cell survival assay, 1205-Lu; assay type: cell-based
Protocol: as §1

[7] = tested on: 1205-Lu human melanoma cells; test: Colony formation assay, 1205-Lu; assay type: cell-based; settings: p<0.02
Protocol: as §1

[8] = tested on: 1205-Lu human melanoma cells; test: Apoptosis, 1205-Lu; assay type: cell-based; settings: p<0.02
[9] = tested on: 1205-Lu human melanoma cells; test: Matrigel invasion assay, 1205-Lu; assay type: cell-based
Protocol: (§4) A Matrigel assay for tumor invasion was performed using routine techniques. For B16-F10, 1205-Lu and C8161.9 cells, insert chambers were coated with 15 μl matrigel at 6 mg/ml protein, 17 μl and 7 mg/ml for C8161.9 cells and 15 μl and 5 mg/ml for 1205-Lu and U251 cell lines.

[10] = tested on: 1205-Lu human melanoma cells; test: Subcutaneous tumor growth of 1205-Lu cells in nude mice; assay type: in vivo; settings: 1205-Lu in nude mice, vs control shRNA-expressing cells
Protocol: (§5) All animal care was in accordance with institutional guidelines and a protocol that was approved by the University of California San Francisco Committee on Animal Research and California Pacific Medical Center Research Institute. Groups of 45-day-old female C57B1/6 (Charles River) were inoculated by tail vein injection with 30,000 B16-F10 BPTF stables cells. 1×10^6 1205-Lu cells were injected by tail vain in nude mice. For subcutaneous injection 1×10^6 1205-Lu, B16-F10, or C8161.9 cells and 2×10^6 U251 cells were injected, respectively.

[11] = tested on: 1205-Lu human melanoma cells; test: Lung metastatic tumor burden after intravenous inoculation of 1205-Lu cells; assay type: in vivo; settings: nude mice
Protocol: as §5

[12] = tested on: BPTF; test: qRT-PCR of BPTF expression in U251 cells; assay type: cell-based; settings: U251 human GBM cells
Protocol: as §2, §3

[13] = tested on: U251 human GBM cells; test: Cell survival and colony formation, U251; assay type: cell-based
Protocol: as §1

[14] = tested on: U251 human GBM cells; test: Cell cycle analysis, U251; assay type: cell-based; settings: U251, p<0.01
Protocol: as §1

[15] = tested on: U251 human GBM cells; test: Apoptosis, U251; assay type: cell-based; settings: U251, p<0.02
[16] = tested on: U251 human GBM cells; test: Matrigel invasion assay, U251; assay type: cell-based
Protocol: as §4

[17] = tested on: BCL2, BCL-XL and CCND2; test: Expression of BCL2, BCL-XL and CCND2 in GBM cells; assay type: cell-based, human; settings: GBM cells (U251)
Protocol: as §2
(§6) Western blot analysis was performed. Target proteins were detected by using specific antibodies against BPTF (Bethyl Laboratories Montgomery, TX), BCL2, and GAPDH (Santa Cruz Biotechnology, Santa Cruz, Calif.), and ERK1/2, pERK1/2, CCND2, BCL-XL, p90RSK (Cell Signaling Technology, Danvers, Mass.).

[18] = tested on: phosphorylated ERK1/2 and p90RSK; test: Western blot of phosphorylated ERK1/2 and p90RSK in GBM cells; assay type: cell-based, human; settings: GBM cells (U251)
Protocol: as §6

[19] = tested on: U251 human GBM cells; test: Subcutaneous U251 tumor growth in nude mice; assay type: in vivo; settings: subcutaneous inoculation
Protocol: as §5

[20] = B16-F10 clones stably expressing shRNA vs control vector

With `CC(C)(C)c1nc(-c2cccc(NS(=O)(=O)c3c(F)cccc3F)c2F)c(-c2ccnc(N)n2)s1` [dabrafenib] as the compound, how does the “reduction in sensitivity to drug on overexpression of BPTF” value [1] read?
The value was 3.4 fold.

And the “increase in sensitivity of BPTF shRNA-expressing cells to drug” value [1]?
The value was 2.8 fold.

Which “reduction in sensitivity to drug on overexpression of BPTF” value [1] does the source give for `CCCS(=O)(=O)Nc1ccc(F)c(C(=O)c2c[nH]c3ncc(-c4ccc(Cl)cc4)cc23)c1F` [vemurafenib] here?
Its value is 2.5 fold.

What about the “increase in sensitivity of BPTF shRNA-expressing cells to drug” value [1] of the same compound?
The value was 3.2 fold.

With “BPTF shRNA 1: shRNA targeting BPTF, TGGCTGTGATCGGTGTCAGAATTGGTACC (SEQ ID NO:3); used for the murine cell line (listed as DNA, chemistry not fully specified)” as the compound, how does the “BPTF expression (qRT-PCR)” value [2] read?
The value was “suppressed significantly”.

Which “BPTF expression (qRT-PCR)” value [2] does the source give for “BPTF shRNA 2: shRNA targeting BPTF, GGTGATGAAGCATAATGCTGTA ATAGAAC (SEQ ID NO:4); used for the murine cell line (GGTGATGAAGCATAATGCTGTAATAGAAC; listed as DNA, chemistry not fully specified)” here?
Its value is “suppressed significantly”.

And the “Bcl-xl and Ccnd2 expression” value ([3]; B16-F10, microarray, confirmed by qRT-PCR and western blot)?
The value was “downregulated”.

What about the “number of genes overexpressed” value [3, 20] of the same compound?
Its value is 1008 genes.

And the “number of genes with downregulated expression” value [3, 20]?
Its value is 27 genes.

With “BPTF shRNA 3: shRNA targeting human BPTF, ATTTAGATTCATCATAAGGCG (SEQ ID NO:5) (listed as DNA, chemistry not fully specified)” as the compound, how does the BPTF expression [4] read?
Its BPTF expression is “significant suppression”.

What about the cell cycle distribution [5] of the same compound?
Its cell cycle distribution is “G1/G0 cell cycle arrest and a significant reduction in S-phase”.

And the cell survival [6]?
Its cell survival is “suppression”.

And the colony formation ability [7]?
The colony formation ability was “suppression”.

And the apoptotic index [8]?
The apoptotic index was “significantly increased”.

And the “invasiveness into Matrigel” value [9]?
Its value is “significant decrease”.

What about the “subcutaneous tumor cell growth” value [10] of the same compound?
Its value is “considerably suppressed”.

What about the “reduction in the metastatic tumor burden in the lungs” value [11] of the same compound?
Its value is 66%.

And the BPTF expression [12]?
The BPTF expression was “Stable suppression”.

What about the “proliferation (cell survival and colony formation)” value [13] of the same compound?
The value was “significantly reduced”.

And the cell cycle distribution [14]?
Its cell cycle distribution is “significant G1/G0 cell cycle arrest”.

What about the apoptosis [15] of the same compound?
Its apoptosis is “induction”.

And the invasiveness [16]?
Its invasiveness is “significantly reduced”.

What about the “expression of BCL2, BCL-XL and CCND2” value [17] of the same compound?
The value was “suppression”.

What about the “phosphorylated ERK1/2 and p90RSK” value [18] of the same compound?
Its value is “significant suppression”.

And the “U251 tumor cell growth” value [19]?
The value was “highly significant reduction”.
